From US20260103465A1, “GLYCOGEN SYNTHASE KINASE 3 INHIBITORS AND USES THEREOF” (The Broad Institute, Inc., priority 2023, published 2026)

What was measured:
[1] = target: T1, GSK3a (GST-full length GSK3a) (Homo sapiens, UniProt P49840); experiment: GSK3a TR-FRET kinase inhibition assay; format: biochemical; settings: 1 mM ATP; Table 5; read-out: GSK3α TR-FRET 1 mM ATP Average IC50
T1 construct: GST-full length GSK3a [SignalChem G08-10G]; purchased SignalChem G08-10G
Protocol: (§1) TR-FRET assay was performed in a white, 384 well, low volume, flat bottom plate (Grenier). After a 30 minute preincubation in assay buffer with the indicated concentration of compound, the kinase activity was initiated by the addition of the substrates. 1 nM GSK3a (GST-full length GSK3a [SignalChem G08-10G]) or 1 nM GSK3b (GST-full length GSK3b: [SignalChem G08-9G]) were then incubated at ambient temperature for 100 minutes in 10 μl of 50 mM Tris, pH 7.5, 20 mM MgCl2, 0.05 mM DTT, 100 μg/ml BSA and 1% DMSO, with 200 nM biotinylated peptide substrate (biotinylated and S645 phosphorylated glycogen synthase 631-650) and ATP (e.g., at 2 μM, 4 μM, 10 μM, 100 μM, or 1 mM). The kinase activity was quenched with 2 μl of 250 mM EDTA. A 10 μl volume of 40 nM Strepavidin-d2, 2 nM […] antibody in TR-FRET Detection Buffer (Invitrogen) was then added. After 60 min at room temperature the plate was read on Envision plate reader using Ex: 340 nm, Em: 615 nm and […]. The normalized 665/615 Signal ratio versus log compound concentration was analyzed by XLFIT to yield IC50 values.

[2] = target: T2, GSK3b (GST-full length GSK3b) (Homo sapiens, UniProt P49841); experiment: GSK3b TR-FRET kinase inhibition assay; format: biochemical; settings: 1 mM ATP; Table 5; read-out: GSK3β TR-FRET 1 mM ATP Average IC50
T2 construct: GST-full length GSK3b: [SignalChem G08-9G]; purchased SignalChem G08-9G
T2 sequence (P49841 whole entry): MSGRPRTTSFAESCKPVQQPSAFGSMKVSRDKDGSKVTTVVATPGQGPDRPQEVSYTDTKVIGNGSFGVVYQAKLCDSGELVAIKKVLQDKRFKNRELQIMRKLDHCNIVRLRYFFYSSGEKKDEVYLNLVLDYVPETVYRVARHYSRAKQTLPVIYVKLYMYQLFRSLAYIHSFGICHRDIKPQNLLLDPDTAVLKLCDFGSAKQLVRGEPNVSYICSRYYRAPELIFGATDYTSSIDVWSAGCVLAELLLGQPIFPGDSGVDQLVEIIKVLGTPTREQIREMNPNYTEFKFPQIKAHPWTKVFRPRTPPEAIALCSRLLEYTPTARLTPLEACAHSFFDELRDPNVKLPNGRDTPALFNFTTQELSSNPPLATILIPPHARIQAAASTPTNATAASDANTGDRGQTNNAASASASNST
Protocol: as §1

T1 sequence (P49840 whole entry): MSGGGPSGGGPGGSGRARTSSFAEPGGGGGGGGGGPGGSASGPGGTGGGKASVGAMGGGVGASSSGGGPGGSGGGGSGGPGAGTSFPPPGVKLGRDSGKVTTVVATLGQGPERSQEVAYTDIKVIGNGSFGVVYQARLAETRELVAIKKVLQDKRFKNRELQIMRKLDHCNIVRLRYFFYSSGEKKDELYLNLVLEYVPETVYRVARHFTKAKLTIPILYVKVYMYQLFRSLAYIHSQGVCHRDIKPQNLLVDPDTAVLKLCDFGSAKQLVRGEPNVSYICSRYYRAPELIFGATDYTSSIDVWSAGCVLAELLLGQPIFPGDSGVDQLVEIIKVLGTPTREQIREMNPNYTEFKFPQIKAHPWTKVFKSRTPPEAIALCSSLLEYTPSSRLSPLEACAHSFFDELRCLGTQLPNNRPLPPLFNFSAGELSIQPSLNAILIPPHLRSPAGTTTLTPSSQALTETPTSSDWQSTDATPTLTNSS

Row | Compound | IC50 [1] [µM] | IC50 [2] [µM]
1 | CC1(C)CC(=O)C2=C(C1)Nc1ncc(CO)c(C#N)c1C2(C)c1ccccc1 (single isomer, unassigned) [613B] | 5 to 20 | 1 to 5
2 | CC1(C)CC(=O)C2=C(C1)Nc1ncc(CF)c(C#N)c1C2(C)c1ccccc1 (single isomer, unassigned) [614A] | 5 to 20 | 5 to 20
3 | CN1C(=O)C2=C(CC1(C)C)Nc1ncc(F)c(C#N)c1C2(C)c1ccccc1 (single isomer, unassigned) [615A] | 1 to 5 | 1 to 5
4 | CN1C(=O)C2=C(CC1(C)C)Nc1ncc(F)c(C#N)c1C2(C)c1ccccc1 (single isomer, unassigned) [615B] | ≤ 0.1 | ≤ 0.1
5 | CC1(C)CC(=O)C2=C(C1)Nc1ncc(F)c(C#N)c1C2(C)c1cccc(F)c1 (single isomer, unassigned) [618A] | 5 to 20 | 5 to 20
6 | CC1(C)CC(=O)C2=C(C1)Nc1ncc(F)c(C#N)c1C2(C)c1cccc(F)c1 (single isomer, unassigned) [618B] | 0.1 to 1 | 0.1 to 1
7 | CC1(C)CC(=O)C2=C(C1)Nc1ncc(C3CC3)c(C#N)c1C2(C)c1ccccc1 (single isomer, unassigned) [619A] | 5 to 20 | 5 to 20
8 | CC1(C)CC(=O)C2=C(C1)Nc1ncc(C3CC3)c(C#N)c1C2(C)c1ccccc1 (single isomer, unassigned) [619B] | 5 to 20 | 5 to 20
9 | C=C(C)c1cnc2c(c1C#N)C(C)(c1ccccc1)C1=C(CC(C)(C)CC1=O)N2 (single isomer, unassigned) [620A] | 5 to 20 | 5 to 20
10 | C=C(C)c1cnc2c(c1C#N)C(C)(c1ccccc1)C1=C(CC(C)(C)CC1=O)N2 (single isomer, unassigned) [620B] | 5 to 20 | 5 to 20

Further lines, results first:

Row | IC50 [1] [µM] | IC50 [2] [µM] | Compound
11 | 5 to 20 | 5 to 20 | CC(=O)c1cnc2c(c1C#N)C(C)(c1ccccc1)C1=C(CC(C)(C)CC1=O)N2 (single isomer, unassigned) [621A]
12 | 5 to 20 | 5 to 20 | CC(C)c1cnc2c(c1C#N)C(C)(c1ccccc1)C1=C(CC(C)(C)CC1=O)N2 (single isomer, unassigned) [622B]
13 | 0.1 to 1 | 0.1 to 1 | CC1(C)CC(=O)C2=C(C1)Nc1ncc(F)cc1C2(C)c1cccc(C(F)F)c1 (single isomer, unassigned) [623B]
14 | 5 to 20 | 5 to 20 | CN(C)c1cnc2c(c1C#N)C(C)(c1ccccc1)C1=C(CC(C)(C)CC1=O)N2 (single isomer, unassigned) [624A]
15 | > 20 | 5 to 20 | CN(C)c1cnc2c(c1C#N)C(C)(c1ccccc1)C1=C(CC(C)(C)CC1=O)N2 (single isomer, unassigned) [624B]
16 | 1 to 5 | 1 to 5 | CC1(C)CC2=C(C(=O)N1)C(C)(c1ccccc1)c1cc(C(F)(F)F)cnc1N2 (single isomer, unassigned) [625A]
17 | 5 to 20 | 5 to 20 | COc1cnc2c(c1C1CC1)C(C)(c1ccccc1)C1=C(CC(C)(C)CC1=O)N2 (single isomer, unassigned) [626A]
18 | 5 to 20 | 1 to 5 | COc1cnc2c(c1C1CC1)C(C)(c1ccccc1)C1=C(CC(C)(C)CC1=O)N2 (single isomer, unassigned) [626B]
19 | 0.1 to 1 | 0.1 to 1 | CC1(C)CC(=O)C2=C(C1)Nc1ncc(C(F)F)c(C#N)c1C2(C)c1ccccc1 (single isomer, unassigned) [627A]
20 | 5 to 20 | 1 to 5 | CC1(C)CC(=O)C2=C(C1)Nc1ncc(C(F)F)c(C#N)c1C2(C)c1ccccc1 (single isomer, unassigned) [627B]
21 | 1 to 5 | 1 to 5 | CC1(C)CC2=C(C(=O)N1)C(C)(c1ccccc1)c1c(ncc(C(F)F)c1C#N)N2 (single isomer, unassigned) [628A]
22 | 1 to 5 | 0.1 to 1 | CC1(C)CC2=C(C(=O)N1)C(C)(c1ccccc1)c1c(ncc(C(F)F)c1C#N)N2 (single isomer, unassigned) [628B]
